Where no end group is shown, it is not given here.
Experiments:
[1] = system: PA14 strains evolved in the presence of an AMP/RPM; test: Fitness cost of evolved strains (growth curves in the absence of AMPs); assay type: cell-based, Pseudomonas aeruginosa; details: growth in MH broth without AMPs, OD595 every 15 min for 24 h, normalised to ancestor; n = 6
Experimental: Bacterial cells were grown overnight in MH broth and then diluted to an OD595 of 0.1. For each strain, 200 μl of culture were transferred into 96-well plates, with 3 technical replicates. Optical density (OD595) was measured every 15 min for 24 h using an Epoch 2 microplate reader (BioTek). Lag time and Vmax were assessed using the plate reader software (Gen5). The values measured in the experimentally evolved strains were divided by the values of their respective ancestors and expressed as lag time fold-change and Vmax fold-change (see “Statistical analysis” section).
Similarly, we normalised both fitness readouts duration of the lag phase (lag time) and maximum slope of the bacterial growth curve (Vmax) to the readouts of the ancestor of the given evolved strain by dividing the values of the evolved strains to that of their respective ancestors. The resulting variable is a fold-change in Vmax and lag time during experimental evolution: Vmax fold-change and lag time fold-change.

[2] = system: P. aeruginosa 14 strain (PA14), ancestor strain; assay type: cell-based, Pseudomonas aeruginosa; details: ancestral strain PA14; MH broth, 5 × 10^5 CFU/ml, 96-well serial dilution, 24 h, inhibition of growth by at least 90% (OD595); 3 replicate lines per peptide
Experimental: MIC values were determined following a standard serial dilution protocol, as described elsewhere. Briefly, PA14 cells were grown overnight in MH broth, at 37°C and 200 rpm. Subsequently, cells were diluted 1:100 in MH broth and grown until reaching an optical density at 595 nm (OD595) of 0.1. Then, 100 μl of 5 × 10^5 CFU/ml were inoculated into each well in 96-well plates that contained a serial dilution of AMPs or RPMs. Each plate contained 3 replicate lines per peptide. The MICs were defined as the lowest concentration at which there was inhibition of bacterial growth by at least 90%, after 24 h, by measuring the OD595.
The MIC was determined on 3 occasions: (1) prior to the experiment, to determine the concentration of our focal peptides to be used at the start of the experimental evolution (i.e., MIC of the ancestor strain); (2) at the end of the experimental evolution, detect an increase, or decrease, in the resistance of the experimentally evolved strains to our peptides of interest; (3) to evaluate whether the experimental evolution of a certain treatment was accompanied by an increase, or decrease, in resistance or sensitivity to another antimicrobial (i.e., cross-resistance or collateral-sensitivity).

Substance | Lag time fold-change of evolved strains compared to control strains [1] | MIC [2]
p-KKKFK [SLM3, specific palmitic acid-modified 5-mer peptide, composed of L-Lysine and/or L-Phenylalanine, part of a 32-peptide library] | significantly increased lag times | 
KIAKRIWKILRRR [PA-13] |  | 25 µg/mL

— publication PMC11218975, “The evolution of antimicrobial peptide resistance in Pseudomonas aeruginosa is severely constrained by random peptide mixtures” (PLOS Biology, 2024)
